Reference: ChEMBL document CHEMBL1201862, “PubChem BioAssay data set” (2004)
Calls of active or inactive are those of the source.

Tests used:
[1] = molecular target: RNA-editing ligase 1, mitochondrial (Trypanosoma brucei brucei, UniProt P86926); assay: inhibition of trypanosome RNA editing ligase – biochemical, fluorescence, Trypanosoma brucei, dose response (AID 1117295); assay type: functional
[2] = molecular target: Genome polyprotein (dengue virus type 2, UniProt P29990); assay: flavivirus cap methylation enzyme inhibition – biochemical, confirmation dose response, primary screen (AID 588689); assay type: functional
[3] = off-target signal loss in HeLa-CEM21 co-culture – HeLa F-luc CTL cells, cherry-picked, counter-screen for HIV-1 Env fusion inhibitor project, dose response (AID 652040); assay type: functional, cell-based;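 further: potency for signal decrease marking cytotoxic or nonspecific inhibition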
[4] = molecular target: T1, Caspase-6 (Homo sapiens, UniProt P55212); assay: inhibition of CASP6 peptide cleavage – biochemical, VEID-R110 fluorescence, cherry-pick, dose response (AID 720632)
T1 sequence (P55212 whole entry): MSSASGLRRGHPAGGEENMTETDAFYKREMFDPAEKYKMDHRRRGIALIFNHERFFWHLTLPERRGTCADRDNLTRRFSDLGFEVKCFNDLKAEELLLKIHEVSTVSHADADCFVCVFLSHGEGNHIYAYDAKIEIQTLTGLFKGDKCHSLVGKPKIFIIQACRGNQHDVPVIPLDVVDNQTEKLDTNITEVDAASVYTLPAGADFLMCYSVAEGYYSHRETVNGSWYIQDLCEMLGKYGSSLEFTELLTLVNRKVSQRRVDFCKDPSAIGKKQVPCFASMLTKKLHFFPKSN

[5] = viability loss in CEM21 cells – cell-based, CellTiter-Glo luminescence, cherry-picked, cytotoxicity control for viral fusion inhibitor project, dose response (AID 652042); assay type: functional;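 further: potency for signal decrease meaning cytotoxicity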
[6] = molecular target: Caspase-8 (Homo sapiens, UniProt Q14790); assay: inhibitors of purified CASP8 protease – biochemical, Z-IETD-R110 fluorescence, cherry-picked samples, selectivity assay for caspase-6 inhibitor project, dose response (AID 743294)
[7] = blockers of HIV-1 envelope-mediated cell-cell fusion – cherry-pick, dose response (AID 652057); assay type: functional, cell-based
[8] = non-specific 3'UTR reporter inhibition in Clone20-Shn3RL – cell-based, Renilla luciferase, cherry-picked, counter-screen for Shn3 inhibitor project, dose response (AID 624133); assay type: functional
[9] = loss of viability in HepG2 cells – cell-based, CellTiter-Glo, cherry-picked, cytotoxicity control for Shn3 inhibitor project, dose response (AID 624134); assay type: functional
[10] = reduction of Shn3 3'UTR-driven luciferase in osteoblasts – cell-based, Clone20 osteoblasts, firefly luciferase, cherry-picked, dose response (AID 624132); assay type: functional;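 further: firefly luciferase luminescence from reporter carrying the Shn3 3'UTR in osteoblasts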
[11] = molecular target: Caspase-7 (Homo sapiens, UniProt P55210); assay: caspase-7 enzyme inhibition, selectivity check – biochemical, DEVD-R110 fluorescence, cherry-pick, selectivity assay for caspase-6 inhibitor project, dose response (AID 743295); assay type: functional
[12] = HIV-1 AD8 envelope cell-cell fusion blockers – cherry-pick, dose response (AID 652062); assay type: functional, cell-based;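 further: luciferase signal from cell-cell fusion driven by HIV-1 clade B AD8 Env; potency is for inhibitors of fusion seen as a drop in luminescence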
[13] = molecular target: Caspase-9 (Homo sapiens, UniProt P55211); assay: inhibitors of purified CASP9 protease – biochemical, fluorescence, plate reader, cherry-picked samples, selectivity assay for caspase-6 inhibitor project, dose response (AID 743293)
[14] = molecular target: T2, Polyadenylate-binding protein 1 (Homo sapiens, UniProt P11940); assay: MLLE binding blockers, Cy5 peptide tracer – biochemical, fluorescence polarization, Cy5-PAM2 peptide, secondary, miRNA deadenylation inhibitor project, dose response (AID 602260); assay type: functional; conditions: read-out: IC50_Mean
[15] = molecular target: T2, Polyadenylate-binding protein 1; assay: MLLE domain peptide-binding blockers, IC50 – biochemical, fluorescence polarization, FITC-PAM2 peptide, dose response (AID 602259); assay type: functional; conditions: read-out: IC50_Mean
[16] = molecular target: T3, Rac GTPase-activating protein 1 (Homo sapiens, UniProt Q9H0H5); assay: blockers of MgcRacGAP-driven Rac1 GTP hydrolysis – biochemical, ADP Hunter fluorescence, primary and confirmatory, confirmation (AID 624330); assay type: functional
T3 sequence (Q9H0H5 whole entry): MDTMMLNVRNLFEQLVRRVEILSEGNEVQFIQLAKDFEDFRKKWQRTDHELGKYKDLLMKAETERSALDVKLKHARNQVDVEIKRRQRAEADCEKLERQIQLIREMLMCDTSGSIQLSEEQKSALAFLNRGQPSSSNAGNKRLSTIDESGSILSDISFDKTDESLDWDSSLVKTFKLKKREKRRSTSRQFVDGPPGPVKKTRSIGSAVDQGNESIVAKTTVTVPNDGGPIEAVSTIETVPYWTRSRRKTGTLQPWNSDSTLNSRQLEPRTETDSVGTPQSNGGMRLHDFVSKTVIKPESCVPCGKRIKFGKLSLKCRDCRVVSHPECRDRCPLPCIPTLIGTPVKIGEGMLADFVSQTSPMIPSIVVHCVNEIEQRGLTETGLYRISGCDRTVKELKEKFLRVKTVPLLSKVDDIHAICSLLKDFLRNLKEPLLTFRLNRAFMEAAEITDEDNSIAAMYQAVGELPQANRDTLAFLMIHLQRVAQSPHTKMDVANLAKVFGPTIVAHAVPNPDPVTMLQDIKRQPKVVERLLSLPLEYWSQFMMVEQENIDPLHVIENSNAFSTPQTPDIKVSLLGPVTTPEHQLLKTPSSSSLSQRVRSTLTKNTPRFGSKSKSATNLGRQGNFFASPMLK

[17] = blockers of HIV-1 ZM109 envelope-driven cell-cell fusion – HeLa effector, CEM target cells, luciferase, cherry-pick, dose response (AID 652058); assay type: functional, cell-based;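 further: luciferase signal from HIV-1 Env mediated cell-cell fusion of effector and target cells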
[18] = NIH3T3 cell viability loss – ATP luminescence, mouse fibroblasts, counter-screen, dose response (AID 2010); assay type: functional, cell-based;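 further: cells exposed to compound for about 90 hours before reading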
[19] = Trypanosoma cruzi growth suppression in host cells – NIH3T3 host cells, beta-gal luminescence, confirmation (AID 2044); assay type: functional, cell-based;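 further: intracellular parasites grown in NIH/3T3 mouse fibroblasts as host cells; luminescent beta-galactosidase reporter signal from transgenic T. cruzi replicating inside host cells; inhibitors lower the luminescence signal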
[20] = molecular target: T4, Estrogen receptor (Homo sapiens, UniProt P03372);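 further: potency for inhibiting coactivator peptide recruitment to the receptor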
T4 sequence (P03372 whole entry): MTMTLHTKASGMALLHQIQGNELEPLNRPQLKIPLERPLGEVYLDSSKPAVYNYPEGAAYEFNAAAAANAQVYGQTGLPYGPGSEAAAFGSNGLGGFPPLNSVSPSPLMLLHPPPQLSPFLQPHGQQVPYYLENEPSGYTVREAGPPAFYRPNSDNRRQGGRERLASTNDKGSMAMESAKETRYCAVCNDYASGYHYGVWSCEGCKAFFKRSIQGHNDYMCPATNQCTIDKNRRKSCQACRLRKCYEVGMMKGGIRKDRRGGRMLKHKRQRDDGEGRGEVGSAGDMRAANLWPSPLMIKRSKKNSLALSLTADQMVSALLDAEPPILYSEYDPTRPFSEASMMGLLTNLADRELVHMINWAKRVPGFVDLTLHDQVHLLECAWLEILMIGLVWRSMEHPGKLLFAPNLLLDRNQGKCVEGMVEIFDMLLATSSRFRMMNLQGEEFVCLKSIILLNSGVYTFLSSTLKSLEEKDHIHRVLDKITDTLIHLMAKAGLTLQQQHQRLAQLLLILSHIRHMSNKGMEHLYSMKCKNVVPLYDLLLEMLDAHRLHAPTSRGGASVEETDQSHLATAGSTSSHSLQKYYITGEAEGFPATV

[21] = viability loss in CEM21 cells – cell-based, plate reader, dry powder, cytotoxicity control, dose response (AID 687026); assay type: functional
[22] = molecular target: Potassium channel subfamily K member 3 (Homo sapiens, UniProt O14649); assay: inhibition of human KCNK3 channel flux – CHO cells, FluxOR thallium flux, SAR follow-up (AID 652212); assay type: functional
[23] = molecular target: Potassium channel subfamily K member 9 (Homo sapiens, UniProt Q9NPC2); assay: KCNK9 flux blockade, concentration-response – cell-based, FluxOR thallium flux, selectivity assay for TASK1 inhibitor project, SAR follow-up (AID 652211); assay type: functional;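 further: potency is for inhibitors of the channel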
[24] = OVCAR4 cell viability loss – plate reader, dry powder, SA11, cytotoxicity control for PAX8 inhibitor project, dose response (AID 743150); assay type: functional, cell-based; conditions: OVCAR-4
[25] = OV-90 cell viability loss – plate reader, dry powder, SA8, PAX8 inhibitor project, dose response (AID 743149); assay type: functional, cell-based
[26] = general cell-killing toxicity readout – plate reader, dry powder samples, cytotoxicity control for PAX8 inhibitor project, dose response (AID 743021); assay type: functional, cell-based
[27] = IGROV1 cell killing – plate reader, dry powder samples, PAX8 inhibitor project, dose response (AID 743043); assay type: functional, cell-based; conditions: IGROV-1
[28] = PAX8-dependent cell viability loss – plate reader, dry powder, dose response (AID 743049); assay type: functional, cell-based
[29] = PAX5 cellular inhibition readout – cell-based, plate reader, dry powder samples, selectivity assay for PAX8 inhibitor project, dose response (AID 743047); assay type: functional;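 further: HEK293 cells carrying a Pax5 driven CD19 promoter luciferase reporter; potency of inhibitors that lower reporter luminescence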
[30] = COV434 cell viability loss – plate reader, dry powder, SA7, cytotoxicity control for PAX8 inhibitor project, dose response (AID 743145); assay type: functional, cell-based
[31] = toxicity toward immortalized ovarian surface epithelium – cell-based, plate reader, dry powder samples, cytotoxicity control for PAX8 inhibitor project, dose response (AID 743045); assay type: functional
[32] = COV362 cell viability loss – plate reader, dry powder, SA12, cytotoxicity control for PAX8 inhibitor project, dose response (AID 743144); assay type: functional, cell-based
[33] = inhibitors acting on PAX2 in cells – cell-based, plate reader, dry powder samples, selectivity assay for PAX8 inhibitor project, dose response (AID 743048); assay type: functional;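 further: HEK293 cells carrying a WT1 promoter luciferase reporter driven by expressed Pax2; potency is for inhibition of Pax2 driven reporter signal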
[34] = molecular target: Paired box protein Pax-8 (Homo sapiens, UniProt Q06710); assay: PAX8 transcriptional activity inhibition in RMG-I – RMG-I cells, luciferase, cherry-pick, dose response (AID 687027); assay type: functional, cell-based;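 further: luciferase reporter driven by Pax8 target thyroperoxidase promoter measured by SteadyGlo luminescence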
[35] = growth inhibition of yeast DHODH-expressing 3D7 parasites – SYBR Green, dry powder samples, dose response (AID 1159570); assay type: functional, cell-based;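 further: parasite growth measured after 72 hours of compound exposure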
[36] = growth inhibition of PfATP4-mutant resistant parasites – NITD609-resistant line, SYBR Green, dry powder, dose response (AID 1159571); assay type: functional, cell-based;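 further: parasites synchronized at ring stage by sorbitol before testing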
[37] = Dd2 parasite growth inhibition in erythrocytes – SYBR Green, dry powder samples, set 9, dose response (AID 1159568); assay type: functional, cell-based
[38] = Dd2 malaria parasite growth inhibition potency – SYBR Green, dry powder samples, dose response (AID 1159566); assay type: functional, cell-based;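 further: potency for growth inhibition with lower SYBR green DNA signal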
[39] = toxicity to human HepG2 hepatoma cells – cell-based, plate reader, dry powder samples, cytotoxicity control, dose response (AID 1159569); assay type: functional;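 further: inhibitor potency with signal falling toward the positive control level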
[40] = P. falciparum Dd2 growth inhibitors, dose response, SYBR Green, cherry-picked samples (AID 1159567); assay type: functional, cell-based

T2 sequence (P11940 whole entry, the tested form may be a part): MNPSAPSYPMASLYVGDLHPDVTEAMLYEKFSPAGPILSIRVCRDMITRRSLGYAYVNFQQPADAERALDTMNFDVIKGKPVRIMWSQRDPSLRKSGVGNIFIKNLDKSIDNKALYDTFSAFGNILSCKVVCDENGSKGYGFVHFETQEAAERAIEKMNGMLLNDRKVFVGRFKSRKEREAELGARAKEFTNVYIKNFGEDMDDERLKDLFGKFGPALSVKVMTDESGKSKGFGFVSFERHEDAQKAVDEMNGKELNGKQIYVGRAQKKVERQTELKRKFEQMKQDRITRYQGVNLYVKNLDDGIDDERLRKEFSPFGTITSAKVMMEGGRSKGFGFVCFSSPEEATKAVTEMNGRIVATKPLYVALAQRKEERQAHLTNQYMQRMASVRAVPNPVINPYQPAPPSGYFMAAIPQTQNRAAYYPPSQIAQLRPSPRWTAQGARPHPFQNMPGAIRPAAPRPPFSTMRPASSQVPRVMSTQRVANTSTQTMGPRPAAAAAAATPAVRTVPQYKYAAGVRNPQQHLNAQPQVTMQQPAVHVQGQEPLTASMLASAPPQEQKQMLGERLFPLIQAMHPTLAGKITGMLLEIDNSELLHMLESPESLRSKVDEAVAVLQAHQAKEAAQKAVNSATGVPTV
Chain of Caspase-7 (P55210 24-198 limits assumed): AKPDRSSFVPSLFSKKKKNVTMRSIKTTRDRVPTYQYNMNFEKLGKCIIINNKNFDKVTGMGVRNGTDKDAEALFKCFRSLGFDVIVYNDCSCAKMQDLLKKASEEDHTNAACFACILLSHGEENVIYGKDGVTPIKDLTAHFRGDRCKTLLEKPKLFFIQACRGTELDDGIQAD
Chain of Caspase-7 (P55210 207-303 limits assumed): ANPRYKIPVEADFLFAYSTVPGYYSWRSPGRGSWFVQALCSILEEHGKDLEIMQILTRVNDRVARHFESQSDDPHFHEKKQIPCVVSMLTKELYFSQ
Chain of RNA-editing ligase 1, mitochondrial (P86926 whole entry): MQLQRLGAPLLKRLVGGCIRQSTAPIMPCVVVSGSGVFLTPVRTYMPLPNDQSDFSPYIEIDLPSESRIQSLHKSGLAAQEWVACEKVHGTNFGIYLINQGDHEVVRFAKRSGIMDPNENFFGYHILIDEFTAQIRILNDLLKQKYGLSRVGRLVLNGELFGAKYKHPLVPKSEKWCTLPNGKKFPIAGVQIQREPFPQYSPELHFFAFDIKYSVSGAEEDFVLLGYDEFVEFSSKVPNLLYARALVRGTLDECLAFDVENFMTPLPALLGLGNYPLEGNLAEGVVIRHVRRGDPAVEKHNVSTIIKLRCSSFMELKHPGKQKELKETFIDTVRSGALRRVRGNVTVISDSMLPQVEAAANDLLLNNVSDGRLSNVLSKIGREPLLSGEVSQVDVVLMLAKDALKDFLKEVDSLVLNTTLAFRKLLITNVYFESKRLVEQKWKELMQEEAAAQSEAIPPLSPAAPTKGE
Chain of Potassium channel subfamily K member 9 (Q9NPC2 whole entry): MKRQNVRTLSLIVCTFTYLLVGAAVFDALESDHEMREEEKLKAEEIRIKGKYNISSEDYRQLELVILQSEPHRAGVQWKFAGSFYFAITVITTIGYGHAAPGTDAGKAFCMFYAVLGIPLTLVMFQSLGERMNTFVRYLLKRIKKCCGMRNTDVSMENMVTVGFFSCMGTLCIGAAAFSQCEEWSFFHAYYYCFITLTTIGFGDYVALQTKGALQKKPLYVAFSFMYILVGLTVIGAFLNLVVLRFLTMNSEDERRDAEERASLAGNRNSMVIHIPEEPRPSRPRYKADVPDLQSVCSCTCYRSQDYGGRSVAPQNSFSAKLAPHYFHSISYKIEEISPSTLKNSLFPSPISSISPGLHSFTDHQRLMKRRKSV
Chain of Genome polyprotein (P29990 2492-3391 limits assumed): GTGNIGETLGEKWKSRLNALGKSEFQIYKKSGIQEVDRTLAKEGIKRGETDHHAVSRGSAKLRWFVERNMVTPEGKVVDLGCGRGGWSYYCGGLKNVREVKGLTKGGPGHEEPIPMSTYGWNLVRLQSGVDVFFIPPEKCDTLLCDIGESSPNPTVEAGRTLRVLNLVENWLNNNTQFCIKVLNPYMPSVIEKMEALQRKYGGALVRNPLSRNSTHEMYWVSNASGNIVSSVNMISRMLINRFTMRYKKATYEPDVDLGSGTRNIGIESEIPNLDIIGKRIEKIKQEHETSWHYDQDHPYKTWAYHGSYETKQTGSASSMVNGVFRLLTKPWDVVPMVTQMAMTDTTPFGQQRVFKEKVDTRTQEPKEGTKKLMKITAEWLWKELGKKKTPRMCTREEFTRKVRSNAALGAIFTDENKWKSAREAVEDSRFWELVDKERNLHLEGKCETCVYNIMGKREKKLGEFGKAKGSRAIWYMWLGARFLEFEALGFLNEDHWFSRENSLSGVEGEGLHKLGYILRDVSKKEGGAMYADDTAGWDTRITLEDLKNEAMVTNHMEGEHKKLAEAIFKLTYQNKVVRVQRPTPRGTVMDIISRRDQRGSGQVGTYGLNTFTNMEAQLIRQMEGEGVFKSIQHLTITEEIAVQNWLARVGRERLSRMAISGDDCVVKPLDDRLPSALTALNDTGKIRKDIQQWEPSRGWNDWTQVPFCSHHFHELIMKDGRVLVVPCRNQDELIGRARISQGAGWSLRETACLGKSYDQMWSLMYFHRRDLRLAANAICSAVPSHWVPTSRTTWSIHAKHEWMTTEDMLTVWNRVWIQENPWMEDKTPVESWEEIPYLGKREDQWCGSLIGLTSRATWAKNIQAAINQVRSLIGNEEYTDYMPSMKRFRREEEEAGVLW
Chain of Paired box protein Pax-8 (Q06710 whole entry): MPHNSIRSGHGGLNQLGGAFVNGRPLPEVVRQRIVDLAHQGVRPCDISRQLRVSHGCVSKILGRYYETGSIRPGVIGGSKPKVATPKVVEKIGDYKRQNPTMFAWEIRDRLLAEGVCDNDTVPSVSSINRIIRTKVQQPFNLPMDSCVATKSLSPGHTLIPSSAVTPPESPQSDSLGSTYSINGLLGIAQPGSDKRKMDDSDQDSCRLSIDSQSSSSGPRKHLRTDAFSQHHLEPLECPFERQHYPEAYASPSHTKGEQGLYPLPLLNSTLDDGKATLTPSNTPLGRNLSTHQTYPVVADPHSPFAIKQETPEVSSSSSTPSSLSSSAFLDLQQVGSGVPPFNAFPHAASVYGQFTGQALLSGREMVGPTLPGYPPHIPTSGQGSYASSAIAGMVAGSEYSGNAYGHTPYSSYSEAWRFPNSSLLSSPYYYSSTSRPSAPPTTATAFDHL
Chain of Caspase-8 (Q14790 217-374 limits assumed): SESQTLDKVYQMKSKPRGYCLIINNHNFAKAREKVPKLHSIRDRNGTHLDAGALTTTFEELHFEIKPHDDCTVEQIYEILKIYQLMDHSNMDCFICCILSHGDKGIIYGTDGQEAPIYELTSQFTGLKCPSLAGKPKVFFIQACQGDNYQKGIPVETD
Chain of Caspase-8 (Q14790 385-479 limits assumed): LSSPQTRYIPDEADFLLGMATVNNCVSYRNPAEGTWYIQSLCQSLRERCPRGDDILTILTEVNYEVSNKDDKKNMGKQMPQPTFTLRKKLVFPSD
Chain of Caspase-9 (P55211 1-315 limits assumed): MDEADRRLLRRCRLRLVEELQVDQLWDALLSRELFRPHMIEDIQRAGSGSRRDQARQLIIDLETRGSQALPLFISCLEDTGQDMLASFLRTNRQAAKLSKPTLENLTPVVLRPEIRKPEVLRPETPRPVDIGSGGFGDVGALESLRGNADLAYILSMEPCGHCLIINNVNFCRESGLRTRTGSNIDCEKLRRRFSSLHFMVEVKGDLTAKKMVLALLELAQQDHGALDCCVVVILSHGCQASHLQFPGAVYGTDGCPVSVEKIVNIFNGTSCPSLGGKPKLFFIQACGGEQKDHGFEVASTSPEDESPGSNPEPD
Chain of Caspase-9 (P55211 331-416 limits assumed): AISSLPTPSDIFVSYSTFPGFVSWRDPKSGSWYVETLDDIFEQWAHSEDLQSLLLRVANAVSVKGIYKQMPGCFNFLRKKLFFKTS
Chain of Potassium channel subfamily K member 3 (O14649 whole entry): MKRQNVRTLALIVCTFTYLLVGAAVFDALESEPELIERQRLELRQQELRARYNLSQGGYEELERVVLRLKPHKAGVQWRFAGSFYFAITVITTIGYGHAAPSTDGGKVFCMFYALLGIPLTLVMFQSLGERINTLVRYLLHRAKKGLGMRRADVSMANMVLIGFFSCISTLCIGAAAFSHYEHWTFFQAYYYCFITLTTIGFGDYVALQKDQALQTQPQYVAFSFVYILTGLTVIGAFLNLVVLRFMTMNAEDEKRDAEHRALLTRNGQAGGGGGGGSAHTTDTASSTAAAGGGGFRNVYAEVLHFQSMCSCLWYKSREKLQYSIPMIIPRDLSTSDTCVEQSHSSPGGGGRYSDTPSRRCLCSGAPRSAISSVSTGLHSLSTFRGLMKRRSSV

O=C(CCN1C(=O)S/C(=C/c2ccccc2)C1=O)Nc1ccc(O)c(C(=O)O)c1
inactive: IC50 [1] > 96.6 µM
active: IC50 [2] 91.6 µM

Nc1cc2c(cc1Br)nc(O)c1ccccc12
active: AC50 [3] 22.9 µM | AC50 [4] 3.87 µM | AC50 [5] 9.39 µM | AC50 [6] 5.26 µM | AC50 [7] 3.76 µM | AC50 [8] 22.9 µM | AC50 [9] 45.8 µM | AC50 [10] 5.46 µM | AC50 [11] 2.6 µM | AC50 [12] 21.6 µM

COc1cc(NC(C)CCCNC(C)C)c2ncccc2c1OC (stereo not drawn)
active: AC50 [4] 1.52 µM | AC50 [11] 23.2 µM | IC50 [16] 31.7 µM
inactive: AC50 [13] > 70 µM | IC50 [14] > 66 µM | IC50 [15] 49.3 µM

COc1ccc(-c2nn(C)c(=O)c3ccccc23)cc1NC(=O)Cn1nc(C)c2ccccc2c1=O
inactive: AC50 [21] > 70 µM
> 60 µM (not active): EC50 [18]
> 50 µM (not active): IC50 [20]
active: AC50 [17] 6.21 µM | EC50 [19] 1.46 µM | AC50 [7] 4.07 µM

CCOc1ccccc1NC(=O)c1cccc(NC(=O)c2ccccc2OC(F)(F)F)c1
active: IC50 [22] 0.114 µM | IC50 [23] 0.8 µM

O=C(Nc1cccc(F)c1)N1CCCCN2[C@H](CO)[C@@H](c3ccc(C#Cc4ccccc4)cc3)[C@H]2C1
active: AC50 [24] 31.1 µM | AC50 [25] 12.6 µM | AC50 [26] 24.4 µM | AC50 [27] 16 µM | AC50 [28] 15.5 µM | AC50 [29] 21 µM | AC50 [30] 11.6 µM | AC50 [31] 21.2 µM | AC50 [32] 17 µM | AC50 [33] 20.8 µM | AC50 [34] 15.4 µM

C/C=C/c1ccc([C@H]2[C@@H](CO)N(CC3CCCCC3)[C@@H]2CNC(C)C)cc1
active: AC50 [35] 0.396 µM | AC50 [36] 0.294 µM | AC50 [37] 0.316 µM | AC50 [38] 0.231 µM | AC50 [39] 49.3 µM | AC50 [40] 0.494 µM
